Data taken from the NIST ThermoML archive (doi:10.1016/j.tca.2018.01.023).
Where “and” joins values, the source holds several entries; their conditions need not be identical. Equal entries are not always repeated. Numbers after ± are expanded uncertainties.

Test: molar heat capacity at constant pressure
Conditions: 101.33 kPa, Crystal, Small sample (50 mg) DSC

[Ca+2].[O]=[Mo](=[O])([O-])[O-] [calcium molybdate(VI)]
molar heat capacity at constant pressure (544.9 K): 138.9 ± 5.9 J/K/mol
molar heat capacity at constant pressure (545.4 K): 138.9 ± 5.9 J/K/mol
molar heat capacity at constant pressure (545.9 K): 138.9 ± 5.9 J/K/mol
molar heat capacity at constant pressure (546.4 K): 139 ± 5.9 J/K/mol
molar heat capacity at constant pressure (546.9 K): 138.9 ± 5.9 J/K/mol
molar heat capacity at constant pressure (547.4 K): 139 ± 5.9 J/K/mol
molar heat capacity at constant pressure (547.9 K): 139 ± 5.9 J/K/mol
molar heat capacity at constant pressure (548.4 K): 139 ± 5.9 J/K/mol
molar heat capacity at constant pressure (548.9 K): 139.1 ± 5.9 J/K/mol
molar heat capacity at constant pressure (549.4 K): 139 ± 5.9 J/K/mol
molar heat capacity at constant pressure (549.9 K): 139.2 ± 5.9 J/K/mol
molar heat capacity at constant pressure (550 K): 139 ± 5.9 J/K/mol
molar heat capacity at constant pressure (550.4 K): 139.1 ± 5.9 J/K/mol
molar heat capacity at constant pressure (550.9 K): 139.3 ± 5.9 J/K/mol
molar heat capacity at constant pressure (551.4 K): 139.1 ± 5.9 J/K/mol
molar heat capacity at constant pressure (551.9 K): 139.5 ± 5.9 J/K/mol
molar heat capacity at constant pressure (552.4 K): 139.2 ± 5.9 J/K/mol
molar heat capacity at constant pressure (552.9 K): 139.6 ± 5.9 J/K/mol
molar heat capacity at constant pressure (553.4 K): 139.2 ± 5.9 J/K/mol
molar heat capacity at constant pressure (553.9 K): 139.7 ± 5.9 J/K/mol
molar heat capacity at constant pressure (554.4 K): 139.3 ± 5.9 J/K/mol
molar heat capacity at constant pressure (554.9 K): 139.8 ± 5.9 J/K/mol
molar heat capacity at constant pressure (555.4 K): 139.3 ± 5.9 J/K/mol
molar heat capacity at constant pressure (555.9 K): 139.8 ± 5.9 J/K/mol
molar heat capacity at constant pressure (556.4 K): 139.4 ± 5.9 J/K/mol
molar heat capacity at constant pressure (556.9 K): 139.8 ± 5.9 J/K/mol
molar heat capacity at constant pressure (557.4 K): 139.5 ± 5.9 J/K/mol
molar heat capacity at constant pressure (557.9 K): 139.8 ± 5.9 J/K/mol
molar heat capacity at constant pressure (558.4 K): 139.5 ± 5.9 J/K/mol
molar heat capacity at constant pressure (558.9 K): 139.8 ± 5.9 J/K/mol
molar heat capacity at constant pressure (559.4 K): 139.6 ± 5.9 J/K/mol
molar heat capacity at constant pressure (559.9 K): 139.9 ± 5.9 J/K/mol
molar heat capacity at constant pressure (560 K): 139.5 ± 5.9 J/K/mol
molar heat capacity at constant pressure (560.4 K): 139.7 ± 5.9 J/K/mol
molar heat capacity at constant pressure (560.9 K): 139.9 ± 5.9 J/K/mol
molar heat capacity at constant pressure (561.4 K): 139.7 ± 5.9 J/K/mol
molar heat capacity at constant pressure (561.9 K): 140 ± 5.9 J/K/mol
molar heat capacity at constant pressure (562.4 K): 139.8 ± 5.9 J/K/mol
molar heat capacity at constant pressure (562.9 K): 140.2 ± 5.9 J/K/mol
molar heat capacity at constant pressure (563.4 K): 139.8 ± 5.9 J/K/mol
molar heat capacity at constant pressure (563.9 K): 140.4 ± 6 J/K/mol
molar heat capacity at constant pressure (564.4 K): 139.9 ± 5.9 J/K/mol
molar heat capacity at constant pressure (564.9 K): 140.6 ± 6 J/K/mol
molar heat capacity at constant pressure (565.4 K): 139.9 ± 5.9 J/K/mol
molar heat capacity at constant pressure (565.9 K): 140.7 ± 6 J/K/mol
molar heat capacity at constant pressure (566.4 K): 139.9 ± 5.9 J/K/mol
molar heat capacity at constant pressure (566.9 K): 140.8 ± 6 J/K/mol
molar heat capacity at constant pressure (567.4 K): 139.9 ± 5.9 J/K/mol
molar heat capacity at constant pressure (568 K): 140.8 ± 6 J/K/mol
molar heat capacity at constant pressure (568.4 K): 140 ± 5.9 J/K/mol
molar heat capacity at constant pressure (569 K): 140.9 ± 6 J/K/mol
molar heat capacity at constant pressure (569.4 K): 140.1 ± 5.9 J/K/mol
molar heat capacity at constant pressure (570 K): 140 ± 5.9 J/K/mol and 141 ± 6 J/K/mol
molar heat capacity at constant pressure (570.4 K): 140.2 ± 5.9 J/K/mol
molar heat capacity at constant pressure (571 K): 141 ± 6 J/K/mol
molar heat capacity at constant pressure (571.4 K): 140.2 ± 5.9 J/K/mol
molar heat capacity at constant pressure (572 K): 141 ± 6 J/K/mol
molar heat capacity at constant pressure (572.4 K): 140.3 ± 6 J/K/mol
molar heat capacity at constant pressure (573 K): 141 ± 6 J/K/mol
molar heat capacity at constant pressure (573.4 K): 140.3 ± 6 J/K/mol
molar heat capacity at constant pressure (574 K): 141.1 ± 6 J/K/mol
molar heat capacity at constant pressure (574.4 K): 140.4 ± 6 J/K/mol
molar heat capacity at constant pressure (575 K): 141.2 ± 6 J/K/mol
molar heat capacity at constant pressure (575.4 K): 140.4 ± 6 J/K/mol
molar heat capacity at constant pressure (576 K): 141.2 ± 6 J/K/mol
molar heat capacity at constant pressure (576.4 K): 140.5 ± 6 J/K/mol
molar heat capacity at constant pressure (577 K): 141.3 ± 6 J/K/mol
molar heat capacity at constant pressure (577.4 K): 140.6 ± 6 J/K/mol
molar heat capacity at constant pressure (578 K): 141.3 ± 6 J/K/mol
molar heat capacity at constant pressure (578.4 K): 140.7 ± 6 J/K/mol
molar heat capacity at constant pressure (579 K): 141.2 ± 6 J/K/mol
molar heat capacity at constant pressure (579.4 K): 140.7 ± 6 J/K/mol
molar heat capacity at constant pressure (580 K): 140.5 ± 6 J/K/mol and 141.2 ± 6 J/K/mol
molar heat capacity at constant pressure (580.4 K): 140.8 ± 6 J/K/mol
molar heat capacity at constant pressure (581 K): 141.2 ± 6 J/K/mol
molar heat capacity at constant pressure (581.4 K): 140.8 ± 6 J/K/mol
molar heat capacity at constant pressure (582 K): 141.3 ± 6 J/K/mol
molar heat capacity at constant pressure (582.4 K): 140.8 ± 6 J/K/mol
molar heat capacity at constant pressure (583 K): 141.3 ± 6 J/K/mol
molar heat capacity at constant pressure (583.4 K): 140.9 ± 6 J/K/mol
molar heat capacity at constant pressure (584 K): 141.4 ± 6 J/K/mol
molar heat capacity at constant pressure (584.4 K): 140.9 ± 6 J/K/mol
molar heat capacity at constant pressure (585 K): 141.6 ± 6 J/K/mol
molar heat capacity at constant pressure (585.4 K): 141 ± 6 J/K/mol
molar heat capacity at constant pressure (586 K): 141.7 ± 6 J/K/mol
molar heat capacity at constant pressure (586.4 K): 141 ± 6 J/K/mol
molar heat capacity at constant pressure (587 K): 141.8 ± 6 J/K/mol
molar heat capacity at constant pressure (587.4 K): 141 ± 6 J/K/mol
molar heat capacity at constant pressure (588 K): 141.9 ± 6 J/K/mol
molar heat capacity at constant pressure (588.4 K): 141 ± 6 J/K/mol
molar heat capacity at constant pressure (589 K): 142 ± 6 J/K/mol
molar heat capacity at constant pressure (589.4 K): 141 ± 6 J/K/mol
molar heat capacity at constant pressure (590 K): 141 ± 6 J/K/mol and 142.1 ± 6 J/K/mol
molar heat capacity at constant pressure (590.4 K): 141.1 ± 6 J/K/mol
molar heat capacity at constant pressure (591 K): 142.1 ± 6 J/K/mol
molar heat capacity at constant pressure (591.4 K): 141.2 ± 6 J/K/mol
molar heat capacity at constant pressure (592 K): 142 ± 6 J/K/mol
molar heat capacity at constant pressure (592.4 K): 141.2 ± 6 J/K/mol
molar heat capacity at constant pressure (593 K): 142 ± 6 J/K/mol
molar heat capacity at constant pressure (593.4 K): 141.2 ± 6 J/K/mol
molar heat capacity at constant pressure (594 K): 142 ± 6 J/K/mol
molar heat capacity at constant pressure (594.4 K): 141.2 ± 6 J/K/mol
molar heat capacity at constant pressure (595 K): 142 ± 6 J/K/mol
molar heat capacity at constant pressure (595.4 K): 141.2 ± 6 J/K/mol
molar heat capacity at constant pressure (596 K): 142.1 ± 6 J/K/mol
